Measurements from patent publication US11180518B2, “Phenyl-heterocycle-phenyl derivatives for use in the treatment or prevention of melanoma” (MAX-PLANCK-GESELLSCHAFT ZUR FÖRDERUNG DER WISSENSCHAFTEN …, priority 2017, dated 2021).
Where two headings read alike, the source gives them in different places.

Legend:
[1] = test system: WM983-B human melanoma xenografts; assay: Melanoma xenograft study: H&E and LC3 staining of tumor sections; format: in vivo, nude mice; conditions: food pellets with compound for seven days; vs control tumor
Description: (§1) To determine whether the DPP compound, anle138b, when administered systemically to human MGP melanoma cells grown as subcutaneous tumors in nude mice, would reach the tumors, we performed the following study. A nude mouse, bearing high-level α-synuclein-expressing (MGP) WM983-B human melanoma xenografts on its lower right and on its lower left dorsal side, received, for seven days, food pellets mixed with anle138b. A second nude mouse, also bearing WM983-B tumors on its lower right as well as on its lower left dorsal side, received, for seven days, the same type of food pellets not containing anle138b. After the mice were sacrificed, we performed the following analyses on the post-mortem resected and thereafter, cryopreserved tumors.
4-week-old, female nude mice (CAnN.Cg-Foxn1nu/Crl) (Charles River Laboratories, Research Models and Services, Germany GmbH, Sulzfeld, Germany) were injected subcutaneously on their lower right as well as lower left dorsal side with WM983-B (MGP) human melanoma cells (1×10^7 cells per side). When the tumors had reached a size of 2.3 to 3.0 mm in any direction, the normal food pellet diet of one of the animals was replaced with food pellets mixed with anle138b [2 g of anle138b/kg of food pellets] […]

WM852 melanoma cells = assay: LDH cytotoxicity analysis; conditions: 2, 5, 10 or 15 μM for 96 hr, replenishment at 48 hr
Protocol: Replicates of WM983-B as well as WM852 melanoma cells were plated at 3×10^5 cells per well in 35 mm tissue culture plates. Twenty-four hours later, the cells were rinsed three times with serum-free medium, followed by addition of increasing doses of anle138b or DMSO only. Forty-eight hours later, the cell culture medium was removed, followed by addition of equivalent doses of anle138b or DMSO only in serum-free medium. Culture medium, collected 48 hr later, was centrifuged to pellet and remove cellular debris. Using a PHERAstar FS microplate reader (BMG LABTECH GmbH, Ortenberg, Germany) and spectrophotometric absorbance measurement, the release of LDH enzyme activity into the tissue culture medium was determined with an LDH cytotoxicity assay kit (Roche Diagnostics Deutschland GmbH, Mannheim, Germany). […] Cells from the DMSO controls were trypsinized, counted, and lysed according to the manufacturer's instructions.

WM983-B melanoma cells [2] = assay: Immunoblot analysis of p62/SQSTM1 expression; format: cell-based, human; conditions: 7.5 μM
Protocol: For the analysis of p62/SQSTM1 protein expression, WM983-B melanoma whole-cell lysates were separated on 12% SDS-PAGE, transferred onto nitrocellulose membrane, blocked with 3% bovine serum albumin (BSA), probed with an anti-p62/SQSTM1 antibody (Cell Signaling Technology, Inc. Danvers, Mass., USA), followed by incubation with a corresponding HPR-conjugated secondary antibody and chemiluminescent substrate (EMD Millipore, Billerica, Mass., USA). Protein loading was determined by secondary probing with an anti-GAPDH antibody (Thermo Fisher Scientific Inc.).

WM1158 melanoma cells = assay: Mitochondrial membrane potential (MitoTracker Red CMXRos); format: cell-based, human; conditions: 10 μM, only after 48 hr
Protocol: (§2) Mitochondrial membrane potential. Melanoma cell lines WM983-B, SK-MEL-5 and WM1158 were treated with anle138b or received DMSO only for 24 or 48 hr. Prior to fixation with 3.7% PFA, the cells were incubated with 200 nM MitoTracker Red CMXRos (Thermo Fisher Scientific, Inc.) for 30 min at 37° C. Confocal image stacks were captured with a 63×NA 1.2 Apochromat water immersion lens on a Zeiss LSM 510 Meta confocal microscope in fluorescence and transmission modes.

SK-MEL-5 melanoma cells = assay: as above; format: cell-based, human; conditions: single 10 μM dose, as early as 24 hr
Protocol: as §2

WM983-B melanoma cells [3] = assay: as above; format: cell-based, human; conditions: single 10 μM dose, as early as 24 hr
Protocol: as §2

[4] = Pharmacokinetic (HPLC) analysis of resected xenograft tumors; format: in vivo, nude mice; conditions: female, CAnN.Cg-Foxn1nu/Crl nude, mouse, tumor (WM983-B human melanoma xenograft, oral, 2 g of anle138b/kg of food pellets), food pellets with 2 g/kg for seven days, read-out: level in the tumor
Description: as §1, with “tumors. […]” for “tumors.”
Cryopreserved WM983-B human melanoma xenograft tissues were brought to 4° C. prior to their transfer into Precellys CKMix—2 mL tissue homogenizing tubes, and homogenization in 0.5 to 1.00 ml acetonitrile using a Precellys Evolution Super homogenizer (Bertin Instruments, Montigny-le-Bretonneux, France). […] The effluent was monitored for UV absorption at 260 nm. Samples were quantitated using peak area ratio of compounds to external standard.

With `Brc1cccc(-c2cc(-c3ccc4c(c3)OCO4)n[nH]2)c1` [anle138b, 5-(3-Bromophenyl)-3-(3,4-methylenedioxyphenyl)-1H-pyrazole] the “LC3-positive cells in tumor sections” value [1] was “more LC3-positive cells”, the “morphology of tumor cells (H&E)” value [1] was “arranged in a scattered pattern with focally pronounced disturbances in the tissue's architecture” and the “number of cells killed (LDH release) compared with WM983-B” value (WM852 melanoma cells) was “significantly lower”. For the same compound, the p62/SQSTM1 expression (WM983-B melanoma cells [2]; 48 and 72 hr, replenishment at 48 hr, vs DMSO only) was “noticeably elevated”, the p62/SQSTM1 expression (WM983-B melanoma cells [2]; 24 hr) was “did not lead to an increase” and the mitochondrial membrane potential (WM1158 melanoma cells) was “some reduction”. The mitochondrial membrane potential (SK-MEL-5 melanoma cells) was “significantly reduced”, the mitochondrial membrane potential (WM983-B melanoma cells [3]) was “significantly reduced” and the concentration at 7 days ([4]; tumor from left dorsal side (218 mg)) was 110 µM. The concentration at 7 days ([4]; tumor from right dorsal side (57 mg)) was 125 µM.
